Earlier results as cited in patent US11725135B2 (priority 2019, dated 2023).

| SMILES | concentration above which precipitation occurs / solubility |
| --- | --- |
| F[Si-2](F)(F)(F)(F)F.[K+].[K+] [Example K2SiF6, potassium hexafluorosilicate] | 1800 µg/mL |
| F[Si-2](F)(F)(F)(F)F.[Na+].[Na+] [Na2SiF6] | 6400 µg/mL |
